Source: patent publication US10111933B2, “Use of growth hormone fragments” (Metabolic Pharmaceuticals Pty Ltd, priority 2011, dated 2018)
Entries after “also recorded” stand apart in the source; their conditions may differ. Ends that are not written are not given here.

Experiments:
[1] = system: Cartilage explants (native cartilage); test: Native cartilage explant culture; assay type: cell-based, calf
Experimental: Cartilage explants were taken from calf metacarpal-carpal joints and placed in culture in Ham's F-12 supplemented with 20% fetal bovine serum (FBS) in the presence and absence of AOD9604 (SEQ ID NO: 1) (10 or 100 μg/ml) for 1 week or (100 or 500 μg/ml) for 2 weeks.
(§1) The tissue was harvested and water content and dry weight measured. The tissue was then digested with papain (Sigma, 40 μg/ml) for 48 h at 65° C. DNA content was determined using the Hoechst 33258 dye binding assay (Polysciences) and fluorometry (excitation 365 nm, emission 458 nm). Proteoglycan content was determined by measuring the amount of sulphated glycosaminoglycans using the dimethylmethylene blue dye binding assay and spectrophotometry (525 nm). Collagen content was determined by measuring the hydroxyproline content of an aliquot of the papain digest hydrolyzed in 6N HCl for 18 h at 110° C. The hydroxyproline content was determined using the chloramine-T/Ehrlich's reagent assay and spectrophotometry (560 nm). The cellularity was quantified by measuring the DNA content using Hoescht 33258 dye binding assay (Polysciences) and fluorometry (excitation 365 nm, emission 458 nm.
(§2) All experiments were done three times and each condition was done in triplicate. The data was expressed as mean±SD. […]. Significance was determined using two way ANOVA followed by Tukey's post hoc test when multiple groups were being evaluated. T test was utilized if 2 groups were being compared. Significance was assigned at p values <0.05.

[2] = system: symptoms consistent with Clostridium tetani infection; parameters: species or system human; details: in vivo, sc
[3] = system: IGF-1; details: effective dose, clinical trials; cited from earlier work
[4] = system: C2C12 cells; test: C2C12 differentiation into myoblasts (myogenin staining); assay type: cell-based
Experimental: C2C12 (2×10^3 cells/cm^2) were grown in DMEM and 10% FBS. Differentiation was induced by replacing growth media with differentiation media which consists of DMEM supplemented with 2% horse serum. The cells were grown in the absence or presence of AOD9604 (10 or 100 μg/ml). The cells were fixed in 4% paraformaldehyde and co-stained for myogenin (a muscle specific muscle marker (transcription factor) 1/250 Tris-Triton X buffer) and Bodipy (cytoplasmic stain, Invitrogen, 1/1000 PBS). The number of cells stained for myogenin were counted in 4 random fields (up to 100 cells/field) (n=4). The percent of cells that stained positively for myogenin was calculated.
(§3) The data was expressed as mean±SD. The data was expressed as mean±SD. Significance was determined using two way ANOVA followed by Tukey's post hoc test when multiple groups were being evaluated. T test was utilized if 2 groups were being compared. Significance was assigned at p values <0.05.

[5] = system: Chondrocytes isolated from articular cartilage; test: Chondrocyte culture on collagen type II-coated filter, cartilage tissue formation; assay type: cell-based, calf; details: for toxicity to cells as determined by DNA content: 10 or 100 μg/ml, 2 weeks of treatment (3 weeks culture), FIG. 1
Experimental: Chondrocytes were isolated from articular cartilage obtained aseptically from calf metacarpal-carpal joints and seeded onto collagen type II-coated membrane inserts (Millipore™) (1.5×10^6 cells/12 mm diameter membrane). Chondrocytes were grown in Ham's F-12 supplemented with 5% fetal bovine serum (FBS) under standard culture conditions. After 5 days the serum was increased to 20%. Chondrocytes were then grown in the presence and absence of AOD9604 (SEQ ID NO: 1) (10 or 100 μg/ml) for 2 weeks (total culture time 3 weeks). Fresh AOD was added with each change of media.
as §1, with “and” for “and water content and dry weight measured. The tissue was then”, “nm).” for “nm.”
as §2

[6] = system: 1.5 cm tear on soleus; test: Case study: calf muscle (soleus) tear; assay type: in vivo, human; details: transdermal 600 mcg per dose twice daily, total 20 ml
Text: The subject was a professional footballer. The athlete incurred at 1.5 cm tear on their soleus near the adjacent aponeurosis to the gastrocnemius. […] A 1.5 cm tear is considered a moderately large tear for the region. […] The fibre tears were directional with the orientation of the fibres. The length of the tear was 1.5 cm.
The subject undertook an intervention of AOD9604 (SEQ ID NO: 1) at 600 mcg per dose. He applied one ml twice daily. The transdermal application was at 600 mcg per ml. The total application was 20 ml.

[7] = system: fibre disruption at the junction of supraspinatus tendon insertion; test: Case study: shoulder tendon; assay type: in vivo, human; details: transdermal 600 mcg per dose twice daily, total 30 ml
Text: The subject was a professional footballer. The athlete incurred some fibre disruption at the junction of supraspinatus tendon insertion. The MRI indicated an area of 1.0 cm within the disruptive pathology. […] Most of the affected area was the muscular portion of the junction. […] The athlete had been restricted in both the range of motion they could employ for the injured site as well as the amount of weight bearing activity they could engage for the area. They had been finding it difficult to abduct the arm at the shoulder joint.
The subject undertook an intervention of AOD9604 (SEQ ID NO: 1) at 600 mcg per dose. They applied one ml twice daily. The transdermal application was at 600 mcg per ml. The total application was 30 ml.

[8] = system: rabbit collagenase model of osteoarthritis; test: Rabbit collagenase model of osteoarthritis, intra-articular administration; assay type: in vivo, New Zealand White Rabbit; details: 4 weekly intra-articular injections of 0.25 mg, 9 weeks post collagenase
Experimental: AOD9604 (SEQ ID NO: 1) was provided by Metabolic Pharmaceutical Pty Ltd.
Treatments groups: 32 rabbits were each given a 2 mg collagenase injection into their right knee joint, followed by a second injection 3 days later to induce osteoarthritis. After 4 weeks, the rabbits were divided into 4 groups of 8 for subsequent treatments.
Group 1 received 4 weekly injections of vehicle (disease control group).
Group 2 received 4 weekly injections of 6 mg of HA-hyuran-plus (HA positive control group).
Group 3 received 4 weekly injections of 0.25 mg of AOD9604 (AOD only group).
Group 4 received 4 weekly injections of both HA and AOD9604 (combination group).
Clinical observations were made by direct observation daily to assess lameness (as described in Kim et al., (2010) supra). At 9 weeks post initial collagenase injection the animals were euthanized.
Gross observation of the right and left knee joints was performed after dissection and scored for damage (as described in Kim et al., (2010) supra). Histological analysis of lateral and medial condyles from each joint was performed and scored.
A statistical analysis of the data was performed and the results are shown in FIGS. 13 (Group 1), 14 (Group 2), 15 (Group 3) and 16 (Group 4).

[9] = system: C2C12 cells; test: C2C12 myotube quantification (Bodipy staining); assay type: cell-based; details: over 72 hours, FIG. 11
Experimental: For myotube quantification the cells were stained with Bodipy (Invitrogen, 1/1000 PBS) according to the manufacturer's directions. The number of myotubes that developed over 72 hours was determined and expressed as a percent of total cells in culture (n=3, 100 cells/culture).
as §3

[10] = system: contusion to the rectus femoris; test: Case study: corked quad, hematoma; assay type: in vivo, human; details: transdermal 600 mcg per dose twice daily, total 20 ml
Text: The subject was a professional footballer. The athlete incurred a contusion to the rectus femoris adjacent to the central tendon. The MRI indicated an area of 2.0 cm area for the contusion. […] There was a minor degree of associated edema associated with the pathology. The MRI confirmed that there was fibre disruption but no true tear. The central tendon remained intact. The injury was an acute injury. The athlete identified discomfort on weight bearing movement and the mass was easily palpatable. Any hip flexion movement could induce discomfort and awareness of the injury. Although the muscle is not considered a dominant muscle in knee extension movement the affected area was painful and inducing discomfort with such work.
The subject undertook an intervention of AOD9604 (SEQ ID NO: 1) at 600 mcg per dose. They applied one ml twice daily. The transdermal application was at 600 mcg per ml. The total application was 20 ml.

[11] = system: osteoblast and osteoclast formation; details: cited from earlier work
[12] = system: tear to the long head of bicep femoris; test: Case study: hamstring muscle tear; assay type: in vivo, human; details: transdermal 600 mcg per dose twice daily, total 40 ml
Text: The subject was a professional footballer. The athlete incurred at 2.0 cm tear to the long head of their bicep femoris. […] Some fibre disruption was noted below the tendon junction coming from the insertion. The length of the tear was 1.5 cm. The fusiform belly region around the injury was highly inflamed.
The subject undertook an intervention of AOD9604 (SEQ ID NO: 1) at 600 mcg per dose. They applied one ml twice daily. The transdermal application was at 600 mcg per ml. The total application was 40 ml.

[13] = system: C2C12 cells; test: C2C12 cell proliferation (DNA content); assay type: cell-based; details: 10 and 100 μg/ml, 3 days, FIG. 12
Experimental: C2C12 were grown in monolayer culture in DMEM (high glucose) supplemented with 10% fetal bovine serum under standard cell culture conditions. The cells were passaged at 60-70% confluence. The effect of AOD9604 (SEQ ID NO: 1) on cell proliferation was determined by growing the cells (3000 cells/cm^2) in the absence or presence of AOD9604 (10 and 100 μg/ml) for 3 days. The DNA content was then quantified. The cells were digested by papain and DNA content determined using the Hoechst 33258 dye binding assay (Polysciences) and fluorometry (excitation 365 nm, emission 458 nm).
as §3

[14] = system: C57Bl/6J (Ob/Ob) mouse; details: cited from earlier work

YLRIVQCRSVEGSCGF (cysteine pairing not given here) [AOD9604]
effect on native cartilage ([1]; 500 μg/ml, FIGS. 5-8): no effect | proteoglycan content of native cartilage ([1]; FIGS. 5 and 7): does not affect | collagen content of native cartilage ([1]; FIGS. 6 and 8): does not affect | toxicity / DNA content of native cartilage ([1]; up to 500 μg/ml, 2 weeks of treatment, FIG. 4, listed as AOD): not toxic; also recorded: no effect | pain [2]: considerably reduced | resolution of symptoms [2]: fully resolved at around day eight | return to activity [2]: resumed full running and moderate weight lifting activity on day eight | plasma level of IGF-1 [3]: did not elevate | differentiation of C2C12 cells into myoblasts ([4]; 3 days (72 hours), doses as low as 10 μg/ml, FIG. 10): enhances | differentiation of C2C12 cells into myoblasts ([4]; 3 days (72 hours), doses as low as 10 μg/ml, FIG. 10, listed as AOD): induces differentiation | differentiation of C2C12 cells into myoblasts ([4]; after 24 hours of treatment, FIG. 9): induces differentiation | proteoglycan content of the tissue ([5]; 100 μg/ml, 3 weeks of culture, FIG. 2): increasing | collagen content of the tissue ([5]; 100 μg/ml, 3 weeks of culture, FIG. 3): increasing | toxicity to cells as determined by DNA content [5]: not toxic | toxicity to cells as determined by DNA content ([5]; listed as AOD): does not have a toxic effect on cells | follow up MRI [6]: full integrity had returned to the injury | residual pain or discomfort [6]: no residual pain or discomfort | resolution of injury [6]: resolved in two weeks | return to weight bearing activities [6]: returned to full weight bearing activities | residual pain or discomfort [7]: no residual pain or discomfort | resolution of injury [7]: resolved in three weeks | return to weight bearing activities [7]: returned to full weight bearing activities and rotation activity | subsequent MRI [7]: full integrity had returned to the junctional area | regeneration compared to control (histological analysis of condyles) [8]: has regenerative power compared to control | formation of myotubes [9]: no affect | formation of myotubes ([9]; listed as AOD): does not enhance | pain or discomfort on resumed weight bearing [10]: no immediate pain or discomfort | resolution of injury [10]: resolved in two weeks | return to weight bearing activity [10]: returned to full weight bearing activity | subsequent MRI [10]: return to full anatomical integrity | formation of osteoclasts [11]: without an increase | osteoblast formation [11]: increased | follow up MRI [12]: full integrity had returned to the bicep femoris long head | residual pain or discomfort [12]: no residual pain or discomfort | resolution of injury [12]: resolved in three weeks | return to weight bearing activities [12]: returned to full weight bearing activities | cell proliferation [13]: did not affect | cell proliferation ([13]; listed as AOD): does not enhance myotube Formation or alter cell proliferation

hGH 177-191: synthetic peptide corresponding to amino acid residues 177-191 of human growth hormone sequence (LRIVQCRSVEGSCGF; UniProt P01241 203-217, looked up, fragment)
adipose tissue mass [14]: reduce | body weight gain [14]: reduce
